Test results taken from PMC9582434, “Ryanodine receptor-active non-dioxin-like polychlorinated biphenyls cause neurobehavioral deficits in larval zebrafish” (Frontiers in Toxicology, 2022).

Columns and labels:
[1] = tested on: larval zebrafish; assay: Larval photomotor behavior test (light/dark locomotor test); assay type: in vivo; conditions: for Behavior score (total change from control): sum of absolute [1 − (AUC value/DMSO)] over all concentrations, epochs and 3, 4, 5 dpf; for distance traveled relative to vehicle control: on average across larval ages
Experimental: (§1) At 4 hpf, embryos were treated with 50 µl of 41 mg/ml protease from Streptomyces griseus (P5147, Sigma-Aldrich, St. Louis, MO, United States) in 25 ml of FW for a maximum of 6 min to remove the chorion ([Truong et al., 2011]). At 5 hpf, embryos were placed in individual wells of 96-well plates filled with 100 µl of EM. At 6 hpf, embryos were exposed to a 2× concentration of the selected PCB congeners or controls that were diluted in 100 μl EM to produce a 1× concentration in a total of 200 µl solution. […] After exposure, plates were covered with Parafilm M (Bemis NA, Neenah, WI, United States) to reduce evaporation and placed in an incubator at 28.5°C with 14 h light (∼300 lux)/10 h dark cycles. Final DMSO concentrations were 0.2% (vol/vol) for all exposures. Fish were statically exposed until 5 dpf.
Larval locomotor tests were performed at 3, 4, and 5 dpf. Vehicle and PCB-exposed larvae in 96-well plates were placed in a DanioVision behavior system (Noldus Information Technology, Leesburg, VA, United States) and subjected to a 35 min light/dark locomotor test. System and plate temperature were maintained at 28.5 ± 0.5°C using a temperature control unit from Noldus. The testing paradigm consisted of a 10 min light period (∼1,900 lux) to allow for acclimation (5 min) and to record baseline swimming (5 min). This was followed by a 5 min dark period (∼0 lux) to stimulate increased swimming behavior and a 5 min light period (∼1,900 lux) to stimulate freezing behavior. The last 15 min consisted of a dark period (∼0 lux) to observe increased swimming behavior and acclimation to the dark conditions.
The distance traveled binned per minute by each larva during the 35-min observation test period was recorded via continuous tracing using a DanioVision system camera with an infrared filter to allow recording in both light and dark conditions. Movement was tracked using EthoVisionXT software (Noldus Information Technology) and exported to Excel and Prism 6.0 (GraphPad Software) for analysis and visualization. Dead and/or malformed larvae (as noted by observation under dissecting scope) were excluded from the behavior analysis.
The trapezoidal rule was used to compute the area under the curve (AUC) for each fish per day per lighting condition. The first 5 min of the 35-min observation period was removed to account for initial acclimation. Therefore, data were analyzed for the following time epochs: Light 1 (L1) = 6–10 min, Dark 1 (D1) = 11–15 min, Light 2 (L2) = 16–20 min, and Dark 2 (D2) = 21–35 min. Mixed effects regression models, including zebrafish-specific random effects, were used to assess differences between groups. DMSO groups from each spawn date (≥3 independent spawns) and plate were combined in the analysis. Separate models were fit for each congener. New variables were defined to capture differences in the AUC between Light 1 and Dark 1, Dark 1 and Light 2, and Light 2 and Dark 2, to measure change in distance traveled when transitioning from light to dark or dark to light. Contrasts were specified to compare these transitions and the AUC during each of the lighting conditions between the exposed groups and the DMSO control group. […] Due to some zeroes in the AUC, all values were shifted by 0.1 prior to taking the natural logarithm. Concentration (0.1, 0.3, 1, 3, 10 µM and DMSO), day (3, 4, 5 dpf), and the transition variables were all of interest in the models, including their interactions. Akaike information criterion was used for model selection and Wald tests for comparing groups. All analyses were conducted using SAS version 9.4.
The neurotoxic potential of the congeners tested in this study were ranked based on the three endpoints measured in this study: RYR binding, behavior, and body burden. Congeners were ranked relative to each other for each individual endpoint from 1 (highest) to 6 (lowest), and then the three scores for each congener averaged to obtain an overall relative ranking for each congener. […]

[2] = Enantioselective gas chromatographic analysis of PCB residues in larvae; assay type: in vivo, zebrafish; conditions: residues in exposed larvae; no significant atropisomeric enrichment
Experimental: The enantioselective analysis of PCB 84 was performed on a 6890 Agilent gas chromatograph equipped with a ^63Ni-µECD detector and CP-Chiralsil-Dex CB capillary column with cyclodextrin directly bonded to dimethylpolysiloxane (25 m length, 0.25 mm inner diameter, 0.25 µm film thickness; Varian, Palo Alto, CA, United States). The temperature program was as follows ([Kania-Korwel et al., 2006]): starting temperature 50°C, hold for 1 min, 10°C/min to 140°C for 100 min, then 10°C/min to 200°C for 5 min. The enantioselective analysis of PCB 95 was performed on a 7890 Agilent gas chromatograph equipped with a ^63Ni-µECD detector and Chiraldex B-DM (BDM) capillary column (length, 30 m × inner diameter, 250 μm × 0.12 µm film thickness, Supelco; St. Louis, MO, United States). The following temperature program was used ([Uwimana et al., 2016]): starting temperature 50°C for 1 min, 10°C/min to 160°C for 90 min, then 10°C/min to 200°C for 10 min. For both instruments, the injector was operated in the splitless mode at 250°C, and the detector temperature was 250°C. […] Enantiomer fractions (EF) were calculated with the drop valley method ([Asher et al., 2009]; [Uwimana et al., 2016]) as EF = Area E1/(Area E1 + Area E2), were Area E1 and Area E2 denote the peak area of the first and second eluting atropisomer, respectively. […]

[3] = tested on: larval zebrafish; conditions: 2020, cited from earlier work
[4] = tested on: larval zebrafish; assay: Teratological and mortality assessment, static exposure 6 hpf to 5 dpf; assay type: in vivo; conditions: 30 µM; by 3 dpf; data not shown
Experimental: as §1
Exposed fish were examined daily for any gross morphological malformations and mortality using an Olympus Stereo Microscope Model SZ61 (Olympus, Japan) up to ×4.5 magnification. […] Teratological endpoints that were evaluated include yolk sac edema, pericardial edema, somite formation, deformities of the body axis, notochord, craniofacial structures, or caudal fin. Malformations were scored in a binary manner of either present or not present. Fish that were scored as neither malformed nor dead were deemed viable. […]

Structure (SMILES) | distance moved relative to vehicle control ([1]; 0.3 µM, 4 dpf, L1) | distance moved relative to vehicle control ([1]; 3 µM, 3 dpf, D2) | distance moved relative to vehicle control ([1]; 10 µM, 3 dpf, D2) | distance moved relative to vehicle control ([1]; 10 µM, 5 dpf, L2) | Behavior score (total change from control) [1] | distance moved relative to vehicle control ([1]; 1 µM, 3 dpf, D1) | distance moved relative to vehicle control ([1]; 10 µM, 3 dpf, D1) | distance moved relative to vehicle control ([1]; 10 µM, 5 dpf, D2) | average EF (enantiomer fraction) values [2] | L1-D1 transition relative to vehicle control ([1]; 0.3 µM, 4 dpf) | distance moved relative to vehicle control ([1]; 3 µM, 3 dpf, L2) | L1-D1 transition relative to vehicle control ([1]; 3 µM, 5 dpf) | distance moved relative to vehicle control ([1]; 3 µM, 5 dpf, L1) | distance moved relative to vehicle control ([1]; 10 µM, 3 dpf, L1) | distance moved relative to vehicle control ([1]; 10 µM, 3 dpf, L2) | L1-D1 transition relative to vehicle control ([1]; 10 µM, 4 dpf) | L1-D1 transition relative to vehicle control ([1]; 10 µM, 5 dpf) | distance moved relative to vehicle control ([1]; 10 µM, 5 dpf, L1) | distance moved relative to vehicle control ([1]; 10 µM, 4 dpf, L2) | other results
Clc1ccc(-c2ccc(Cl)cc2Cl)cc1 [PCB 28] | traveling less | significantly less | significantly less | moved less | 10.83 | – | – | – | – | – | – | – | – | – | – | – | – | – | – | increase of L1-D1 transition relative to vehicle controls ([1]; 0.1 µM, 4 dpf): 0.9 mm; distance moved relative to vehicle control ([1]; 0.1 µM, 4 dpf, D1): significantly more; increase of L1-D1 transition relative to vehicle controls ([1]; 0.3 µM, 4 dpf): 1.3 mm; distance moved relative to vehicle control ([1]; 0.3 µM, 4 dpf, D1): significantly more; increase of L1-D1 transition relative to vehicle controls ([1]; 1 µM, 4 dpf): 0.87 mm; distance moved relative to vehicle control ([1]; 1 µM, 4 dpf, D1): significantly more; increase of L1-D1 transition relative to vehicle controls ([1]; 3 µM, 4 dpf): 0.9 mm; distance moved relative to vehicle control ([1]; 3 µM, 4 dpf, D1): significantly more; increase of L1-D1 transition relative to vehicle controls ([1]; 10 µM, 4 dpf): 0.8 mm
Clc1cc(Cl)c(-c2ccc(Cl)c(Cl)c2Cl)cc1Cl [PCB 138] | – | moved more | moved more | – | 29.32 | moved more | moved more | moved less | – | – | – | – | – | – | – | – | – | – | – | increase of L1-D1 transition compared to the control group ([1]; 0.3 µM, 4 dpf): 0.821; increase of L1-D1 transition compared to the control group ([1]; 1 µM, 4 dpf): 0.68; distance moved relative to vehicle control ([1]; 3 µM, 3 dpf, D1): moved more; decrease of L1-D1 transition compared to controls ([1]; 3 µM, 5 dpf): 0.7; decrease of L1-D1 transition compared to the control group ([1]; 10 µM, 4 dpf, not quite statistically significant (p = 0.06)): 0.6
Clc1cccc(-c2c(Cl)ccc(Cl)c2Cl)c1Cl [PCB 84] | significantly less movement | – | moved more | – | 28.93 | – | moved more | – | 0.50 ± 0.01 | moved more | moved more | increased less | moved more | Increased | Increased | moved less | increased less | moved more | – | distance moved relative to vehicle control ([1]; 0.1 µM, 3 dpf, D1): moved less; distance moved relative to vehicle control ([1]; 0.1 µM, 3 dpf, D2): moved less; distance moved relative to vehicle control ([1]; 0.1 µM, 3 dpf, L2): moved less; distance moved relative to vehicle control ([1]; 0.3 µM, 5 dpf, L1): moved more; L1-D1 transition relative to vehicle control ([1]; 1 µM, 4 dpf): moved more; distance moved relative to vehicle control ([1]; 1 µM, 4 dpf, L1): significantly less movement
Clc1ccc(-c2ccc(Cl)c(Cl)c2)c(Cl)c1 [PCB 66] | – | – | – | – | 14.39 | – | – | – | – | – | – | – | – | – | – | – | – | – | – | distance traveled relative to vehicle control ([1]; 0.11 µM, L1): significantly decreased; distance traveled relative to vehicle control ([1]; 1 µM, L1): significantly decreased
Clc1cc(Cl)c(-c2cc(Cl)c(Cl)cc2Cl)cc1Cl [PCB 153, 2,2',4,4',5,5'-Hexachlorobiphenyl] | moved more | – | moved more | more movement | 23.05 | moved more | moved more | – | – | attenuating | – | – | – | – | moved more | – | attenuated | moved more | moved more | malformations or mortality ([3]; larval zebrafish younger than 7 dpf, static exposure, up to 10 μM, ref Aluru et al.): no malformations or mortality; L1-D1 transition relative to vehicle control ([1]; 1 µM, 3 dpf): larger; distance moved relative to vehicle control ([1]; 1 µM, 3 dpf, D2): moved more; distance moved relative to vehicle control ([1]; 1 µM, 3 dpf, L2): moved more; L1-D1 transition relative to vehicle control ([1]; 10 µM, 3 dpf): larger
Clc1ccc(Cl)c(-c2c(Cl)ccc(Cl)c2Cl)c1 [PCB 95, 2,2',3,5',6-pentachlorobiphenyl] | – | moved more | significantly more | – | 81.46 | – | significantly more | significantly less | 0.50 ± 0.01 | – | moved more | significantly less | more | significantly more | significantly more | decreased | decreased | more | significantly more | loss of viability [4]: ~100%; malformations after developmental exposure ([3]; exposure commenced shortly after fertilization, ref Ranasinghe et al.): caused malformations; L1-D1 transition relative to vehicle control ([1]; 0.1 µM, 4 dpf): moved more; distance moved relative to vehicle control ([1]; 10 µM, 4 dpf, D1): significantly less; distance moved relative to vehicle control ([1]; 10 µM, 4 dpf, L1): significantly more; distance moved relative to vehicle control ([1]; 10 µM, 5 dpf, D1): significantly less
